Test results taken from the supplement of paper PMC10331698.
± gives the standard deviation of the averaged measurements.

What was measured:
Experiment in all cases: level (log10 ratio to DMSO vehicle control); higher = higher biomarker level / cell amount than vehicle control
Tetrafluorosuccinic acid = compound: O=C(O)C(F)(F)C(F)(F)C(=O)O [Tetrafluorosuccinic acid]; conditions: in DMSO
Experimental: (§1)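 BioMAP Diversity Plus panel of 12 human primary cell co-culture systems (3C, 4H, LPS, SAg, BT, BF4T, BE3C, CASM3C, HDF3CGF, KF3CT, MyoF, Mphg). Compounds were added 1 h before stimulation and left for 24 h (MyoF 48 h; BT 72 h for soluble read-outs or 6 d for IgG). Biomarkers were read by ELISA, cytotoxicity by SRB, PBMC viability and proliferation by Alamar Blue. Each well value was divided by the mean of 8 DMSO control wells on the same plate and log10 transformed; duplicate blinded samples were tested at 4 concentrations.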

[1] = compound: C=CC(=O)OCC(F)(F)C(F)(F)C(F)(F)C(F)(F)C(F)(F)C(F)(F)C(F)(F)C(F)F [1H,1H,9H-Perfluorononyl acrylate]; conditions: in DMSO
Experimental: as §1

[2] = compound: C=CC(=O)OCC(F)(F)C(F)(F)C(F)(F)C(F)(F)COC(=O)C=C [1H,1H,6H,6H-Perfluorohexane-1,6-diol diacrylate]; conditions: 6700 nM; in DMSO
Experimental: as §1

[3] = compound: OCC(F)(F)C(F)(F)C(F)(F)C(F)(F)C(F)(F)C(F)(F)F [6:1 Fluorotelomer alcohol]; conditions: in DMSO
Experimental: as §1

[4] = compound: O=C(CC(=O)C(F)(F)C(F)(F)C(F)(F)F)c1cccs1 [(Perfluorobutyryl)-2-thenoylmethane]; conditions: in DMSO
Experimental: as §1

Perfluorooctanoic acid = compound: O=C(O)C(F)(F)C(F)(F)C(F)(F)C(F)(F)C(F)(F)C(F)(F)C(F)(F)F [Perfluorooctanoic acid]; conditions: in DMSO
Experimental: as §1

[5] = compound: O=S(=O)(O)CCC(F)(F)C(F)(F)C(F)(F)C(F)(F)F [4:2 Fluorotelomer sulfonic acid]; conditions: in DMSO
Experimental: as §1

Test System	level (log10) (Tetrafluorosuccinic acid; 6700 nM)	level (log10) (Tetrafluorosuccinic acid; 20000 nM)	level (log10) (Tetrafluorosuccinic acid; 60000 nM)	level (log10) ([1]; 6700 nM)	level (log10) ([1]; 20000 nM)	level (log10) ([1]; 60000 nM)	level (log10) [2]	level (log10) ([3]; 6700 nM)	level (log10) ([3]; 20000 nM)	level (log10) ([3]; 60000 nM)	level (log10) ([4]; 6700 nM)	level (log10) ([4]; 20000 nM)	level (log10) (Perfluorooctanoic acid; 6700 nM)	level (log10) (Perfluorooctanoic acid; 20000 nM)	level (log10) (Perfluorooctanoic acid; 60000 nM)	level (log10) ([5]; 6700 nM)	level (log10) ([5]; 20000 nM)	level (log10) ([5]; 60000 nM)
LPS:CD40	-0.016 ± 0.0028	-0.0185 ± 0.0092	-0.007 ± 0.014	-0.001 ± 0.05	-0.0785 ± 0.029	-0.181 ± 0.064	-0.1475 ± 0.00071	0.053 ± 0.016	0.048 ± 0.052	0.041 ± 0.0028	-0.0095 ± 0.071	-0.0805 ± 0.083	0.006 ± 0.025	-0.032 ± 0.057	-0.0815 ± 0.022	0.0175 ± 0.079	0.0505 ± 0.043	0.032 ± 0.071
BF4T:SRB	-0.0035 ± 0.0021	-0.005 ± 0.0028	-0.0025 ± 0.00071	-0.0045 ± 0.005	-0.001 ± 0.016	0.0065 ± 0.021	-0.01 ± 0.0014	-0.0045 ± 0.0064	-0.0045 ± 0.013	-0.004 ± 0.023	-0.023 ± 0.0085	-0.057 ± 0.0042	-0.008 ± 0.0099	0.0015 ± 0.0064	-0.0005 ± 0.013	-0.012 ± 0.0042	-0.0085 ± 0.0064	-0.0075 ± 0.0064
BF4T:tPA	-0.0145 ± 0.0078	-0.006 ± 0.034	-0.025 ± 0.013	-0.0135 ± 0.028	-0.006 ± 0.011	-0.0395 ± 0.026	-0.0425 ± 0.0021	-0.0055 ± 0.016	-0.013 ± 0.021	0.0095 ± 0.029	-0.122 ± 0.02	-0.068 ± 0.018	-0.065 ± 0.05	-0.0715 ± 0.03	-0.093 ± 0.031	-0.0295 ± 0.023	-0.0295 ± 0.03	0.0055 ± 0.06
BF4T:IL-1alpha	0.023 ± 0.02	0.0145 ± 0.025	0.0335 ± 0.016	0.007 ± 0.0071	0.017 ± 0.014	0.005 ± 0.013	-0.0155 ± 0.025	-0.0005 ± 0.005	0.0035 ± 0.0021	0.0005 ± 0.011	-0.041	-0.0615 ± 0.011	-0.009 ± 0.0057	-0.0125 ± 0.018	-0.0055 ± 0.018	-0.0025 ± 0.015	-0.013 ± 0.0028	0.0135 ± 0.029
LPS:M-CSF	-0.0255 ± 0.0078	-0.018 ± 0.014	0.0335 ± 0.047	0.0015 ± 0.032	-0.0025 ± 0.0092	-0.0265 ± 0.057	-0.021 ± 0.021	0.009 ± 0.038	0.0085 ± 0.05	0.0125 ± 0.023	0.004 ± 0.085	-0.046 ± 0.072	0.0255 ± 0.054	-0.016 ± 0.1	0.06 ± 0.078	-0.0265 ± 0.049	0.017 ± 0.0071	0.0025 ± 0.005
BF4T:MMP-1	0.016 ± 0.02	0.008 ± 0.013	0.0295 ± 0.0035	-0.0185 ± 0.0021	-0.0005 ± 0.005	0.001 ± 0.0057	0.0365 ± 0.018	0.002 ± 0.014	0.0025 ± 0.0078	-0.011 ± 0.0028	-0.02 ± 0.011	-0.0785 ± 0.0092	-0.002 ± 0.0057	-0.0005 ± 0.0078	0.0265 ± 0.018	-0.002 ± 0.017	-0.0115 ± 0.005	0.0055 ± 0.0092
LPS:CD141/Thrombomodulin	0.019 ± 0.1	0.043 ± 0.057	0.04 ± 0.047	-0.028 ± 0.0042	-0.0695 ± 0.035	-0.108 ± 0.021	-0.0375 ± 0.013	-0.0225 ± 0.03	-0.021 ± 0.051	0.002 ± 0.0057	-0.009 ± 0.042	-0.0665 ± 0.077	0.068 ± 0.076	0.0185 ± 0.077	0 ± 0.03	0.0215 ± 0.039	0.0345 ± 0.044	0.0755 ± 0.032
BT:sIL-6	-0.0225 ± 0.0064	-0.018 ± 0.025	-0.033 ± 0.011	-0.073 ± 0.018	-0.269 ± 0.07	-0.693 ± 0.5	-0.546 ± 0.044	-0.001 ± 0.025	-0.034 ± 0.073	-0.296 ± 0.036	-0.009 ± 0.024	-0.265 ± 0.067	0.024 ± 0.03	-0.0095 ± 0.035	0.0025 ± 0.0078	0.047 ± 0.041	-0.0105 ± 0.011	-0.052 ± 0.13
BT:sIL-2	-0.0195 ± 0.035	0.03 ± 0.083	0.0825 ± 0.13	0.118 ± 0.042	-0.0285 ± 0.11	-0.514 ± 0.61	-0.461 ± 0.18	0.0235 ± 0.028	-0.012 ± 0.075	-0.289 ± 0.081	0.0385 ± 0.067	-0.001 ± 0.0014	0.0385 ± 0.11	0.039 ± 0.093	0.046 ± 0.12	-0.009 ± 0.059	-0.044 ± 0.037	0.038 ± 0.02
BF4T:CD106/VCAM-1	0.0205 ± 0.0092	-0.0155 ± 0.029	-0.033 ± 0.021	-0.007 ± 0.0071	-0.0165 ± 0.04	0.0185 ± 0.066	-0.132 ± 0.016	0.0075 ± 0.0021	-0.007 ± 0.031	-0.032 ± 0.0028	0.0215 ± 0.052	-0.236 ± 0.063	-0.037 ± 0.017	-0.0345 ± 0.032	0 ± 0.065	-0.0045 ± 0.0078	-0.018 ± 0.0028	0.0085 ± 0.046
4H:CD87/uPAR	-0.0355 ± 0.025	-0.043 ± 0.035	-0.036 ± 0.089	-0.024 ± 0.035	-0.043 ± 0.028	-0.034 ± 0.061	-0.04 ± 0.027	-0.0195 ± 0.018	0.029 ± 0.011	-0.175 ± 0.36	-0.006 ± 0.024	0.033 ± 0.0071	-0.0695 ± 0.053	-0.0395 ± 0.1	-0.083 ± 0.048	0.0185 ± 0.0078	0.003 ± 0.0085	-0.031 ± 0.024
LPS:sTNF-alpha	-0.0025 ± 0.018	0.0025 ± 0.011	0.009 ± 0.011	0.085 ± 0.028	0.0465 ± 0.042	0.004 ± 0.086	0.0235 ± 0.029	-0.0625 ± 0.071	-0.046 ± 0.09	-0.0115 ± 0.0092	0.0225 ± 0.036	0.119 ± 0.029	0.032 ± 0.0099	0.0305 ± 0.021	0.0085 ± 0.013	-0.0105 ± 0.011	-0.007 ± 0.0014	-0.0065 ± 0.0035
BF4T:CXCL8/IL-8	0.0235 ± 0.0064	0.016 ± 0.038	0.029 ± 0.023	-0.0025 ± 0.061	0.0315 ± 0.053	0.0175 ± 0.012	-0.0265 ± 0.013	0.008 ± 0.057	-0.0085 ± 0.039	0.013 ± 0.016	0.0325 ± 0.028	0.114 ± 0.0092	-0.0035 ± 0.013	-0.0085 ± 0.0035	-0.0025 ± 0.016	-0.001 ± 0.052	0.0065 ± 0.016	0.001 ± 0.033
BF4T:PAI-I	-0.0075 ± 0.012	-0.0025 ± 0.018	0.0035 ± 0.00071	0.007 ± 0.0057	0.003 ± 0.0085	0.0005 ± 0.012	-0.015 ± 0.0014	-0.001 ± 0.0028	-0.012	0.002 ± 0.021	-0.0085 ± 0.0092	-0.125 ± 0.014	0.0005 ± 0.0021	0.0015 ± 0.0021	-0.007 ± 0.0099	-0.0055 ± 0.005	-0.007 ± 0.0071	-0.0035 ± 0.015
